Results taken from US8158810B2 (Gilead Sciences, Inc., priority 2006, dated 2012).

Tests used:
hMAO-A = target: T1, hMAO-A (Homo sapiens, UniProt P21397); test: MAO-A inhibition assay; type: biochemical; settings: No = no inhibition; for hMAO-A inhibition up to 10 μM: printed in the IC50 hMAO-A column
T1 construct: purchased Sigma M7316
T1 sequence (P21397 1-527): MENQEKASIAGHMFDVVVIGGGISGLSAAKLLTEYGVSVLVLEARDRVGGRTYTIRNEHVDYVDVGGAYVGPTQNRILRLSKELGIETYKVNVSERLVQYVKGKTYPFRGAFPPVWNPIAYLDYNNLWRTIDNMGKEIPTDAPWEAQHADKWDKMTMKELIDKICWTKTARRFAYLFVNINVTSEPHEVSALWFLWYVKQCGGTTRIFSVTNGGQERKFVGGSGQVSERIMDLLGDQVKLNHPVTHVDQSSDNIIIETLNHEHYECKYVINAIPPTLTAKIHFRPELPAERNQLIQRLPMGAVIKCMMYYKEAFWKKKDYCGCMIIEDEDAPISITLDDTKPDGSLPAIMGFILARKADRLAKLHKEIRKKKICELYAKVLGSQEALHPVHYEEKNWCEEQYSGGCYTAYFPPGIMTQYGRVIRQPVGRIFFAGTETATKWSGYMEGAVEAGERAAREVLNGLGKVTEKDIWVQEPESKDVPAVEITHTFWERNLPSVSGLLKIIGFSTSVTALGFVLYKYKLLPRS
Procedure: (§1) MAO-A (Sigma M7316) and MAO-B (Sigma M7441) inhibition assays were conducted in 96-well micro-plates according to the method described by Zhou et al. [Analytical Biochemistry 253, 169-174, 1997]. […] Reactions were initiated by the addition of a pre-mixed solution of tyramine, horseradish peroxidase and Amplex Red, and were allowed to proceed at 37° C. for 30 min. Enzyme activities were determined by measuring absorbance at 570 nm (SpectralMax Plate reader), absorbance of oxidized Amplex Red generated by this horseradish peroxidase-coupled reaction. Nonspecifically formed products were determined in the presence of 2 and 10 µM clorgyline and deprenyl for MAO-A and MAO-B, respectively. IC50 values were determined by fitting concentration-inhibition data to sigmoidal dose-response curves with two-floating parameters: IC50 and Hill coefficient.

hMAO-B = target: T2, hMAO-B (Homo sapiens, UniProt P27338); test: MAO-B inhibition assay; type: biochemical; settings: No = no inhibition; for hMAO-B inhibition at 10 μM: printed in the IC50 hMAO-B column
T2 construct: purchased Sigma M7441
T2 sequence (P27338 1-520): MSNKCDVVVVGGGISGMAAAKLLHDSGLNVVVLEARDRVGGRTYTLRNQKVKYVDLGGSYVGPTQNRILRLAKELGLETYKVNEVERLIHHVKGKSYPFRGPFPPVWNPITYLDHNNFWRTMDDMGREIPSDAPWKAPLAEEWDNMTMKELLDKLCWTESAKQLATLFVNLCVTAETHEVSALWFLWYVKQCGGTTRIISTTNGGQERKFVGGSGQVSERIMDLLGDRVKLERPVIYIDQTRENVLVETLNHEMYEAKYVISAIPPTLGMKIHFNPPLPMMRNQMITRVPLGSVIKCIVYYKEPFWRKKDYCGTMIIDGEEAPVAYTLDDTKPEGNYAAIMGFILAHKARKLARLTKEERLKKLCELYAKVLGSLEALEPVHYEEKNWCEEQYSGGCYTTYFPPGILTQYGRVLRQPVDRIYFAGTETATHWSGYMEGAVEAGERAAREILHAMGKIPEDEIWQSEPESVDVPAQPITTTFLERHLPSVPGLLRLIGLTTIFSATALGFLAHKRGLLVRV
Procedure: as §1

Structure (SMILES)	hMAO-A inhibition up to 10 μM (hMAO-A)	hMAO-B inhibition at 10 μM (hMAO-B)	also measured
O=c1c(-c2ccc(O)cc2)coc2cc(OCc3noc(-c4cccc(F)c4)n3)ccc12 [PT-42, 7-{[5-(3-fluorophenyl)(1,2,4-oxadiazol-3-yl)]methoxy}-3-(4-hydroxyphenyl)chromen-4-one]	No	–	hMAO-B inhibition up to 10 μM (hMAO-B): No
O=c1c(-c2ccc(O)cc2)coc2cc(OCc3noc(-c4ccc(F)cc4)n3)ccc12 [PT-11, 7-{[5-(4-fluorophenyl)(1,2,4-oxadiazol-3-yl)]methoxy}-3-(4-hydroxyphenyl)chromen-4-one]	No	–	hMAO-B inhibition at 10 μM (hMAO-B; listed as PT-104, 10 µM): No
NC(=O)c1ccc(COc2ccc3c(=O)c(-c4ccc(O)cc4)coc3c2)cc1 [PT-37, 4-{[3-(4-hydroxyphenyl)-4-oxochromen-7-yloxy]methyl}benzamide]	–	–	hMAO-A inhibition up to 30 μM (hMAO-A): No; hMAO-B inhibition up to 30 μM (hMAO-B): No
N#Cc1cccc(COc2ccc3c(=O)c(-c4ccc(O)cc4)coc3c2)c1 [PT-25, 3-{[3-(4-hydroxyphenyl)-4-oxochromen-7-yloxy]methyl}benzenecarbonitrile]	No	–	hMAO-B inhibition up to 10 μM (hMAO-B): No
O=c1c(-c2ccc(O)cc2)coc2cc(OCc3nnc(-c4ccccc4Cl)o3)ccc12 [PT-80, 7-{[5-(2-chlorophenyl)(1,3,4-oxadiazol-2-yl)]methoxy}-3-(4-hydroxyphenyl)chromen-4-one]	No	No	–
CNC(=O)c1coc(COc2ccc3c(=O)c(-c4ccc(O)cc4)coc3c2)n1 [PT-118, (2-{[3-(4-hydroxyphenyl)-4-oxochromen-7-yloxy]methyl}(1,3-oxazol-4-yl))-N-methylcarboxamide]	No	No	–
O=C(O)c1ccc(COc2ccc3c(=O)c(-c4ccc(O)cc4)coc3c2)cc1 [PT-36, 4-{[3-(4-hydroxyphenyl)-4-oxochromen-7-yloxy]methyl}benzoic acid]	–	–	hMAO-A inhibition up to 40 μM (hMAO-A; up to 40 μM): No; hMAO-B inhibition up to 30 μM (hMAO-B): No
O=c1c(-c2ccc(O)cc2)coc2cc(OCc3noc(-c4ccc(F)c(C(F)(F)F)c4)n3)ccc12 [PT-30, 7-({5-[4-fluoro-3-(trifluoromethyl)phenyl](1,2,4-oxadiazol-3-yl)}methoxy)-3-(4-hydroxyphenyl)chromen-4-one]	No	–	hMAO-B inhibition up to 10 μM (hMAO-B): No
O=c1c(-c2ccc(O)cc2)coc2cc(OCc3noc(-c4cc(C(F)(F)F)cc(C(F)(F)F)c4)n3)ccc12 [PT-39, 7-({5-[3,5-bis(trifluoromethyl)phenyl](1,2,4-oxadiazol-3-yl)}methoxy)-3-(4-hydroxyphenyl)chromen-4-one]	No	–	hMAO-B inhibition up to 10 μM (hMAO-B): No
O=c1c(-c2ccc(O)cc2)coc2cc(OCc3nc(-c4ccccc4)no3)ccc12 [PT-43, 3-(4-hydroxyphenyl)-7-[(3-phenyl(1,2,4-oxadiazol-5-yl))methoxy]chromen-4-one]	–	–	hMAO-A inhibition up to 30 μM (hMAO-A): No; hMAO-B inhibition up to 30 μM (hMAO-B): No
C=CCOC(=O)c1cccc(-c2nc(COc3ccc4c(=O)c(-c5ccc(O)cc5)coc4c3)no2)c1 [PT-32, prop-2-enyl 3-(3-{[3-(4-hydroxyphenyl)-4-oxochromen-7-yloxy]methyl}-1,2,4-oxadiazol-5-yl)benzoate]	No	–	hMAO-B inhibition up to 10 μM (hMAO-B): No
CCOC(=O)c1cnn(CCOc2ccc3c(=O)c(-c4ccc(O)cc4)coc3c2)c1 [PT-122, ethyl 1-{2-[3-(4-hydroxyphenyl)-4-oxochromen-7-yloxy]ethyl}pyrazole-4-carboxylate]	No	No	–
O=c1c(-c2ccc(O)cc2)coc2cc(OCc3noc(-c4cc(F)cc(C(F)(F)F)c4)n3)ccc12 [PT-29, 7-({5-[3-fluoro-5-(trifluoromethyl)phenyl](1,2,4-oxadiazol-3-yl)}methoxy)-3-(4-hydroxyphenyl)chromen-4-one]	–	–	hMAO-A inhibition up to 30 μM (hMAO-A): No; hMAO-B inhibition up to 30 μM (hMAO-B): No
O=c1c(-c2ccc(O)cc2)coc2cc(OCc3nc(-c4ccc(Cl)cc4)no3)ccc12 [PT-44, 3-(4-hydroxyphenyl)-7-({3-[4-chlorophenyl](1,2,4-oxadiazol-5-yl)}methoxy)chromen-4-one]	–	–	hMAO-A inhibition up to 30 μM (hMAO-A): No; hMAO-B inhibition up to 30 μM (hMAO-B): No
O=c1c(-c2ccc(O)cc2)coc2cc(OCc3coc(-c4cc(F)cc(C(F)(F)F)c4)n3)ccc12 [PT-13, 7-({2-[5-fluoro-3-(trifluoromethyl)phenyl](1,3-oxazol-4-yl)}methoxy)-3-(4-hydroxyphenyl)chromen-4-one]	No	No	–
O=c1c(-c2ccc(O)cc2)coc2cc(OCc3cncc(C(F)(F)F)c3)ccc12 [PT-94, 3-(4-hydroxyphenyl)-7-{[5-(trifluoromethyl)(3-pyridyl)]methoxy}chromen-4-one]	No	No	–
N#Cc1cccc(-c2nc(COc3ccc4c(=O)c(-c5ccc(O)cc5)coc4c3)no2)c1 [PT-40, 3-(3-{[3-(4-hydroxyphenyl)-4-oxochromen-7-yloxy]methyl}-1,2,4-oxadiazol-5-yl)benzenecarbonitrile]	No	–	hMAO-B inhibition up to 10 μM (hMAO-B): No
COc1ccc2c(COc3ccc4c(=O)c(-c5ccc(O)cc5)coc4c3)cc(=O)oc2c1 [PT-119, 4-{[3-(4-hydroxyphenyl)-4-oxochromen-7-yloxy]methyl}-7-methoxychromen-2-one]	No	No	–
O=c1c(-c2ccc(O)cc2)coc2cc(OCc3cc(-c4cc(C(F)(F)F)cc(C(F)(F)F)c4)on3)ccc12 [PT-62, 7-({5-[3,5-bis(trifluoromethyl)phenyl]isoxazol-3-yl}methoxy)-3-(4-hydroxyphenyl)chromen-4-one]	No	no	–
O=C(COc1ccc2c(=O)c(-c3ccc(O)cc3)coc2c1)c1ccccc1C(F)(F)F [PT-85, 3(4-hydroxyphenyl)-7-{2-oxo-2-[2-(trifluoromethyl)phenyl]ethoxy}chromen-4-one]	No	No	–
Nc1cccc(-c2nnc(COc3ccc4c(=O)c(-c5ccc(O)cc5)coc4c3)o2)c1 [PT-121, 7-{[5-(3-aminophenyl)(1,3,4-oxadiazol-2-yl)]methoxy}-3-(4-hydroxyphenyl)chromen-4-one]	No	No	–
O=c1c(-c2ccc(O)cc2)coc2cc(OCc3noc(-c4ccc(C(F)(F)F)cc4)n3)ccc12 [PT-38, 3-(4-hydroxyphenyl)-7-({5-[4-(trifluoromethyl)phenyl](1,2,4-oxadiazol-3-yl)}methoxy)chromen-4-one]	–	–	hMAO-A inhibition up to 30 μM (hMAO-A): No; hMAO-B inhibition up to 30 μM (hMAO-B): No
O=c1c(-c2ccc(O)cc2)coc2cc(OCc3nc(-c4cccnc4)no3)ccc12 [PT-114, 3-(4-hydroxyphenyl)-7-[(3-(3-pyridyl)(1,2,4-oxadiazol-5-yl))methoxy]chromen-4-one]	No	No	–
